This is an account of results in patent US20230381280A1, “NEW DOSAGE REGIMEN FOR INHALED VASOACTIVE INTESTINAL POLYPEPTIDE” (priority 2020, published 2023).

The subject of the data set is COVID-19 pulmonary involvement.

Take `CC[C@H](C)[C@H](NC(=O)[C@H](CO)NC(=O)[C@H](CC(N)=O)NC(=O)[C@H](CC(C)C)NC(=O)[C@H](Cc1ccc(O)cc1)NC(=O)[C@H](CCCCN)NC(=O)[C@H](CCCCN)NC(=O)[C@@H](NC(=O)[C@H](C)NC(=O)[C@H](CCSC)NC(=O)[C@H](CCC(N)=O)NC(=O)[C@H](CCCCN)NC(=O)[C@H](CCCNC(=N)N)NC(=O)[C@H](CC(C)C)NC(=O)[C@H](CCCNC(=N)N)NC(=O)[C@@H](NC(=O)[C@H](Cc1ccc(O)cc1)NC(=O)[C@H](CC(N)=O)NC(=O)[C@H](CC(=O)O)NC(=O)[C@@H](NC(=O)[C@H](Cc1ccccc1)NC(=O)[C@@H](NC(=O)[C@H](C)NC(=O)[C@H](CC(=O)O)NC(=O)[C@H](CO)NC(=O)[C@@H](N)Cc1c[nH]cn1)C(C)C)[C@@H](C)O)[C@@H](C)O)C(C)C)C(=O)N[C@@H](CC(C)C)C(=O)N[C@@H](CC(N)=O)C(N)=O` [Aviptadil]: the “Entering Intensive Care (%)” value (Age >=60, treatment group) is listed as 25%. Besides, where the note is “human, in vivo”, the Tolerability result is recorded as “well tolerated”.
